From the CheMixHub viscosity set
± gives the uncertainty stated by the source.

Test: xn = mol fraction of the nth substance listed

CCNCCO + O
viscosity (293.15 K, 100 kPa, x2 = 0.55): 32.2 ± 0.6 mPa·s
viscosity (293.15 K, 101.3 kPa, x1 = 0.0481): 2.723 ± 0.55 mPa·s
viscosity (293.15 K, 101.3 kPa, x1 = 0.0797): 4.52 ± 0.12 mPa·s
viscosity (293.15 K, 101.3 kPa, x1 = 0.1001): 7.45 ± 0.07 mPa·s
viscosity (293.15 K, 101.3 kPa, x1 = 0.119): 7.315 ± 1.5 mPa·s
viscosity (293.15 K, 101.3 kPa, x1 = 0.168): 11.94 ± 0.27 mPa·s
viscosity (293.15 K, 101.3 kPa, x1 = 0.233): 17.55 ± 3.5 mPa·s
viscosity (293.15 K, 101.3 kPa, x1 = 0.3001): 23.16 ± 0.2 mPa·s
viscosity (293.15 K, 101.3 kPa, x1 = 0.4002): 28.88 ± 0.24 mPa·s
viscosity (293.15 K, 101.3 kPa, x1 = 0.447): 31.75 ± 6.4 mPa·s
viscosity (293.15 K, 101.3 kPa, x1 = 0.6001): 31.42 ± 0.27 mPa·s
viscosity (293.15 K, 101.3 kPa, x1 = 0.7): 28.21 ± 0.25 mPa·s
viscosity (293.15 K, 101.3 kPa, x1 = 0.8002): 23.04 ± 0.21 mPa·s
viscosity (293.15 K, 101.3 kPa, x1 = 0.9001): 17.51 ± 0.16 mPa·s
viscosity (293.15 K, 101.3 kPa, x2 = 0.3547): 30.01 ± 6 mPa·s
viscosity (293.15 K, 101.33 kPa, x1 = 0.019): 1.537 ± 0.13 mPa·s
viscosity (293.15 K, 101.33 kPa, x1 = 0.0419): 2.508 ± 0.21 mPa·s
viscosity (293.15 K, 101.33 kPa, x1 = 0.0686): 3.671 ± 0.3 mPa·s
viscosity (293.15 K, 101.33 kPa, x1 = 0.1): 5.847 ± 0.48 mPa·s
viscosity (298.15 K, 101.3 kPa, x1 = 0.0797): 3.7 ± 0.1 mPa·s
viscosity (298.15 K, 101.3 kPa, x1 = 0.168): 9.26 ± 0.21 mPa·s
viscosity (298.15 K, 101.33 kPa, x1 = 0.019): 1.336 ± 0.11 mPa·s
viscosity (298.15 K, 101.33 kPa, x1 = 0.0419): 2.112 ± 0.17 mPa·s
viscosity (298.15 K, 101.33 kPa, x1 = 0.0686): 3.152 ± 0.26 mPa·s
viscosity (298.15 K, 101.33 kPa, x1 = 0.1): 4.671 ± 0.38 mPa·s
viscosity (303.15 K, 100 kPa, x2 = 0.55): 18.1 ± 0.3 mPa·s
viscosity (303.15 K, 101 kPa, x1 = 0.0499): 1.968 ± 0.019 mPa·s
viscosity (303.15 K, 101 kPa, x1 = 0.0998): 3.824 ± 0.031 mPa·s
viscosity (303.15 K, 101 kPa, x1 = 0.1506): 6.179 ± 0.049 mPa·s
viscosity (303.15 K, 101 kPa, x1 = 0.2011): 8.652 ± 0.07 mPa·s
viscosity (303.15 K, 101 kPa, x1 = 0.2982): 13.25 ± 0.11 mPa·s
viscosity (303.15 K, 101 kPa, x1 = 0.4029): 17.07 ± 0.17 mPa·s
viscosity (303.15 K, 101 kPa, x1 = 0.4458): 17.98 ± 0.18 mPa·s
viscosity (303.15 K, 101 kPa, x1 = 0.5051): 18.79 ± 0.2 mPa·s
viscosity (303.15 K, 101.3 kPa, x1 = 0.0481): 1.934 ± 0.39 mPa·s
viscosity (303.15 K, 101.3 kPa, x1 = 0.0797): 3.05 ± 0.08 mPa·s
viscosity (303.15 K, 101.3 kPa, x1 = 0.1001): 4.82 ± 0.05 mPa·s
viscosity (303.15 K, 101.3 kPa, x1 = 0.119): 4.617 ± 0.92 mPa·s
viscosity (303.15 K, 101.3 kPa, x1 = 0.168): 7.3 ± 0.16 mPa·s
viscosity (303.15 K, 101.3 kPa, x1 = 0.2): 9.31 ± 0.08 mPa·s
viscosity (303.15 K, 101.3 kPa, x1 = 0.233): 10.33 ± 2.1 mPa·s
viscosity (303.15 K, 101.3 kPa, x1 = 0.3001): 13.36 ± 0.12 mPa·s
viscosity (303.15 K, 101.3 kPa, x1 = 0.4002): 16.31 ± 0.14 mPa·s
viscosity (303.15 K, 101.3 kPa, x1 = 0.447): 17.94 ± 3.6 mPa·s
viscosity (303.15 K, 101.3 kPa, x1 = 0.5): 17.86 ± 0.16 mPa·s
viscosity (303.15 K, 101.3 kPa, x1 = 0.6001): 17.96 ± 0.16 mPa·s
viscosity (303.15 K, 101.3 kPa, x1 = 0.7): 16.61 ± 0.15 mPa·s
viscosity (303.15 K, 101.3 kPa, x1 = 0.8002): 14.28 ± 0.13 mPa·s
viscosity (303.15 K, 101.3 kPa, x1 = 0.9001): 11.45 ± 0.11 mPa·s
viscosity (303.15 K, 101.33 kPa, x1 = 0.019): 1.172 ± 0.098 mPa·s
viscosity (303.15 K, 101.33 kPa, x1 = 0.0419): 1.804 ± 0.15 mPa·s
viscosity (303.15 K, 101.33 kPa, x1 = 0.0686): 2.613 ± 0.21 mPa·s
viscosity (303.15 K, 101.33 kPa, x1 = 0.1): 3.798 ± 0.31 mPa·s
viscosity (308.15 K, 101.3 kPa, x1 = 0.0797): 2.56 ± 0.06 mPa·s
viscosity (308.15 K, 101.3 kPa, x1 = 0.168): 5.85 ± 0.13 mPa·s
viscosity (308.15 K, 101.33 kPa, x1 = 0.019): 1.038 ± 0.087 mPa·s
viscosity (308.15 K, 101.33 kPa, x1 = 0.0419): 1.559 ± 0.13 mPa·s
viscosity (308.15 K, 101.33 kPa, x1 = 0.0686): 2.222 ± 0.18 mPa·s
viscosity (308.15 K, 101.33 kPa, x1 = 0.1): 3.14 ± 0.26 mPa·s
viscosity (313.15 K, 100 kPa, x2 = 0.55): 10.9 ± 0.2 mPa·s
viscosity (313.15 K, 101.3 kPa, x1 = 0.0481): 1.422 ± 0.28 mPa·s
viscosity (313.15 K, 101.3 kPa, x1 = 0.0797): 2.18 ± 0.05 mPa·s
viscosity (313.15 K, 101.3 kPa, x1 = 0.1001): 2.74 ± 0.03 mPa·s
viscosity (313.15 K, 101.3 kPa, x1 = 0.119): 3.122 ± 0.63 mPa·s
viscosity (313.15 K, 101.3 kPa, x1 = 0.168): 4.78 ± 0.11 mPa·s
viscosity (313.15 K, 101.3 kPa, x1 = 0.2): 5.5 ± 0.05 mPa·s
viscosity (313.15 K, 101.3 kPa, x1 = 0.233): 6.544 ± 1.3 mPa·s
viscosity (313.15 K, 101.3 kPa, x1 = 0.3001): 8.19 ± 0.07 mPa·s
viscosity (313.15 K, 101.3 kPa, x1 = 0.4002): 10.32 ± 0.09 mPa·s
viscosity (313.15 K, 101.3 kPa, x1 = 0.447): 10.85 ± 2.2 mPa·s
viscosity (313.15 K, 101.3 kPa, x1 = 0.5): 11.49 ± 0.1 mPa·s
viscosity (313.15 K, 101.3 kPa, x1 = 0.6001): 11.66 ± 0.1 mPa·s
viscosity (313.15 K, 101.3 kPa, x1 = 0.7): 10.91 ± 0.1 mPa·s
viscosity (313.15 K, 101.3 kPa, x1 = 0.8002): 9.46 ± 0.09 mPa·s
viscosity (313.15 K, 101.3 kPa, x1 = 0.9001): 7.8 ± 0.07 mPa·s
viscosity (313.15 K, 101.3 kPa, x2 = 0.3547): 10.6 ± 2.1 mPa·s
viscosity (313.15 K, 101.33 kPa, x1 = 0.019): 0.927 ± 0.077 mPa·s
viscosity (313.15 K, 101.33 kPa, x1 = 0.0419): 1.362 ± 0.11 mPa·s
viscosity (313.15 K, 101.33 kPa, x1 = 0.0686): 1.896 ± 0.16 mPa·s
viscosity (318.15 K, 101.3 kPa, x1 = 0.0797): 1.86 ± 0.05 mPa·s
viscosity (318.15 K, 101.3 kPa, x1 = 0.168): 3.96 ± 0.09 mPa·s
viscosity (318.15 K, 101.33 kPa, x1 = 0.019): 0.833 ± 0.069 mPa·s
viscosity (318.15 K, 101.33 kPa, x1 = 0.0419): 1.201 ± 0.098 mPa·s
viscosity (318.15 K, 101.33 kPa, x1 = 0.0686): 1.643 ± 0.13 mPa·s
viscosity (318.15 K, 101.33 kPa, x1 = 0.1): 2.241 ± 0.18 mPa·s
viscosity (323.15 K, 100 kPa, x2 = 0.55): 6.98 ± 0.12 mPa·s
viscosity (323.15 K, 101.3 kPa, x1 = 0.0481): 1.093 ± 0.22 mPa·s
viscosity (323.15 K, 101.3 kPa, x1 = 0.0797): 1.62 ± 0.04 mPa·s
viscosity (323.15 K, 101.3 kPa, x1 = 0.1001): 2 ± 0.03 mPa·s
viscosity (323.15 K, 101.3 kPa, x1 = 0.119): 2.225 ± 0.45 mPa·s
viscosity (323.15 K, 101.3 kPa, x1 = 0.168): 3.34 ± 0.07 mPa·s
viscosity (323.15 K, 101.3 kPa, x1 = 0.2): 3.68 ± 0.04 mPa·s
viscosity (323.15 K, 101.3 kPa, x1 = 0.233): 4.39 ± 0.88 mPa·s
viscosity (323.15 K, 101.3 kPa, x1 = 0.3001): 5.2 ± 0.05 mPa·s
viscosity (323.15 K, 101.3 kPa, x1 = 0.4002): 6.29 ± 0.05 mPa·s
viscosity (323.15 K, 101.3 kPa, x1 = 0.447): 6.977 ± 1.4 mPa·s
viscosity (323.15 K, 101.3 kPa, x1 = 0.5): 6.88 ± 0.06 mPa·s
viscosity (323.15 K, 101.3 kPa, x1 = 0.6001): 7.05 ± 0.06 mPa·s
viscosity (323.15 K, 101.3 kPa, x1 = 0.7): 6.74 ± 0.06 mPa·s
viscosity (323.15 K, 101.3 kPa, x1 = 0.8002): 6.18 ± 0.06 mPa·s
viscosity (323.15 K, 101.3 kPa, x1 = 0.9001): 5.19 ± 0.05 mPa·s
viscosity (323.15 K, 101.3 kPa, x2 = 0.3547): 6.882 ± 1.4 mPa·s
viscosity (323.15 K, 101.33 kPa, x1 = 0.019): 0.755 ± 0.062 mPa·s
viscosity (323.15 K, 101.33 kPa, x1 = 0.0419): 1.068 ± 0.087 mPa·s
viscosity (323.15 K, 101.33 kPa, x1 = 0.0686): 1.438 ± 0.12 mPa·s
viscosity (323.15 K, 101.33 kPa, x1 = 0.1): 1.934 ± 0.16 mPa·s
